Reference: paper PMC11156954, “Inhibition and transport mechanisms of the ABC transporter hMRP5” (Nature Communications, 2024)
Entries after “also recorded” stand apart in the source; their conditions may differ. No end group written: not given here.

Key:
[1] = molecular target: T1, hMRP5-Δ1-94 (Homo sapiens, UniProt O15440); test: MST binding assay, hMRP5-Δ1-94; conditions: MST, digitonin-purified hMRP5-Δ1-94, 15 min at room temperature
T1 construct: The codon-optimized full-length human ABCC5 gene encoding the MRP5 protein (UniProt ID: O15440); 8xHis (C); 2xstrep (C); made in house; host or cells: HEK293F
Description: We monitored the binding of different peptides to digitonin-purified hMRP5-Δ1-94-8xHis by MST assay (Monolith NT). HEPES buffer was used to replace Tris buffer during protein purification in the MST assay. The purified protein was mixed with RED-tris-NTA 2nd Generation dye (NanoTemper, MO-L018). Next, serially diluted peptides were mixed with the labeled protein. The mixtures were incubated for 15 min at room temperature, then the capillaries were loaded and the samples were assessed at 3% LED/excitation power and medium MST power. All peptides used in this study were synthesized in GL Biochem (Shanghai). The peptide sequence is provided as Source Data 5. The MST data were analyzed with MO.Affinity Analysis software.

[2] = molecular target: T1, hMRP5-Δ1-94; test: cryo-EM of the reconstituted peptide complex; format: binding; conditions: peptide and hMRP5-Δ1-94 at 2:1 ratio, on ice, 1 h; inward-open complex
Description: To assess if D35C-E75C can structurally block the transport pathway, we incubated it with hMRP5-Δ1-94 at a 2:1 ratio for in vitro reconstitution. The resulting high-resolution structure of the reconstituted complex maintained an inward-open conformation with both NBDs separated (Fig. 4c and Supplementary Fig. 7a–d). […] Given its ability to effectively occlude the binding pocket, we termed the D35C-E75C peptide MRP5 potential peptide inhibitor (M5PI).
Freshly purified MRP5 protein was concentrated to ~5 mg/ml. Then, 5 μl proteins were added to the freshly glow-discharged (0.39 mBar air, 15 mA, 50 s) holey carbon grid (Quantifoil Au R1.2/1.3, 300 mesh). The grids were plunge-frozen in liquid ethane using an FEI Vitrobot Mark IV (Thermo Fisher Scientific) under the following conditions: waiting time, 11 s; blot time, 4 s; blot force, −2; temperature, 10 °C; and humidity, 100%. Next, the grids were transferred to and stored in liquid nitrogen until data acquisition. For the peptide M5PI-bound complex, the peptide and hMRP5-Δ1-94 were incubated together on ice at a ratio of 2:1 for 1 h before vitrification. […]
The single-particle analysis procedures for all states are summarized in the supplementary information (Supplementary Figs. 1, 2, 4, 5, 7 and 8). […] The overall resolution of the final map was determined by the 0.143 criterion of the gold-standard Fourier shell correlation. […]

T1 sequence (O15440 95-1437 limits assumed, stated change not applied): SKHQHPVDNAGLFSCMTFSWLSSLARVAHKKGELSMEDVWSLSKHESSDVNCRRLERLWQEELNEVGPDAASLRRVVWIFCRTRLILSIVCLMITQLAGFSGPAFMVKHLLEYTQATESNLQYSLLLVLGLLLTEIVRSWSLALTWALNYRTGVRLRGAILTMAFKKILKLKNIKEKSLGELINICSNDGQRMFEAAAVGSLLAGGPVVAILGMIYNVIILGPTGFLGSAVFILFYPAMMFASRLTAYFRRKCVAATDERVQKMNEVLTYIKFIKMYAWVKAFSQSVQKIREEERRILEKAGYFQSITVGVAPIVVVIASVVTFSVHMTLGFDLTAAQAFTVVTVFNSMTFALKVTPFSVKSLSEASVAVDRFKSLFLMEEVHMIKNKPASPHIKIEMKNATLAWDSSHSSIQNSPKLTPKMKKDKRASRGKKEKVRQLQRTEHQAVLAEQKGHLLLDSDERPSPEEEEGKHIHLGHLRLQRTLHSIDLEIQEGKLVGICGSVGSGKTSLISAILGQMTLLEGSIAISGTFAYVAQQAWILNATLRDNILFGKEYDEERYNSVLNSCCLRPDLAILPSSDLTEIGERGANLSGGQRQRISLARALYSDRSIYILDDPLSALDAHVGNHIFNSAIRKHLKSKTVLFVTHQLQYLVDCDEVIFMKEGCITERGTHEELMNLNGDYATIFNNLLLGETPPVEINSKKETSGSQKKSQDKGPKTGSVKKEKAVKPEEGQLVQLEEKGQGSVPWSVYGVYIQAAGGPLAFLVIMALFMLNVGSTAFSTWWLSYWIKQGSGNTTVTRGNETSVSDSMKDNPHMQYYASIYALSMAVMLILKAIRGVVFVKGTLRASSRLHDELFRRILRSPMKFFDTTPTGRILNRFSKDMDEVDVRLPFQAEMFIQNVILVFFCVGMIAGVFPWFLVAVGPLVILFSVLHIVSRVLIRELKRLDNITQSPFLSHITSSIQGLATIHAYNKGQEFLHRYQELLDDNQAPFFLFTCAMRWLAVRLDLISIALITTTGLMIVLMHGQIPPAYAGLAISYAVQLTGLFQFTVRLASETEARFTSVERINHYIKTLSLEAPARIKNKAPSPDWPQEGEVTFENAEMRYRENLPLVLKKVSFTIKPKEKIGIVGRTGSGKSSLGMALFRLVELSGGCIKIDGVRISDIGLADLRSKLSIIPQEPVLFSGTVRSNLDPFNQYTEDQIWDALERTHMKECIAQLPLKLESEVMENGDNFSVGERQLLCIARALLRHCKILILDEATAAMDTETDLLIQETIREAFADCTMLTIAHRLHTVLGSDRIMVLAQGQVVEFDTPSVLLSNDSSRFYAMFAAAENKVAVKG

Sequence: CSKFRRTRPLECQDALETAARAEGLSLDASMHSQLRILDEC (cysteines drawn unpaired) [M5PI]
- binding affinity to hMRP5, in words [1]: stronger hMRP5 affinity than selected anticancer drugs
- binding affinity to hMRP5, in words ([1]; listed as Cys35-Cys75 peptide): higher affinity for hMRP5 compared to the original Asp35-Glu75 peptide
- binding affinity to hMRP5, in words ([1]; listed as D35C-E75C): highest affinity for hMRP5 among these peptides; also recorded: higher binding affinity to hMRP5 than the well-studied substrate doxorubicin and inhibitor trequinsin
- EM density of bound peptide [2]: clear EM density for the bound D35C-E75C peptide in the central cavity
